Data from US8629163B2, “Tetrakis-quaternary ammonium salts and methods for modulating neuronal nicotinic acteylcholine receptors” (University of Kentucky Research Foundation, priority 2007, dated 2014).

What was measured:
rat striatal slices = assay: Nicotine-evoked [^3H]dopamine release (overflow) from superfused rat striatal slices; assay type: cell-based; conditions: for inhibition at 0.1 µM: % inhibition at 100 nM analog, 10 μM S(-)nicotine, rat striatal slices, read-out: Inhibition of Nicotine-evoked [^3H]DA release; for IC50: Rattus norvegicus, full concentration response assay, 4-5 independent experiments in duplicate, 10 μM nicotine, read-out: IC50, inhibition of nicotine-evoked [^3H]DA release (converted)
Procedure: Rat striatal slices (500 μm thickness, 6 mg wet weight) were incubated for 30 minutes in Krebs buffer (118 mM NaCl, 4.7 mM KCl, 1.2 mM MgCl2, 1.0 mM NaH2PO4, 1.3 mM CaCl2, 11.1 mM glucose, 25 mM NaHCO3, 0.11 mM L-ascorbic acid, and 0.004 mM disodium EDTA; pH 7.4, and saturated with 95% O2/5% CO2) in a metabolic shaker at 34° C. Slices were rinsed with 15 mL of fresh buffer and incubated for an additional 30 minutes in fresh buffer containing 0.1 μM [^3H]dopamine (DA; 6 slices/3 mL). Subsequently, slices were rinsed with 15 mL of fresh buffer and each slice transferred to a superfusion chamber. Slices were superfused (0.6 mL/min) for 60 minutes with Krebs buffer containing nomifensine (10 μM) and pargyline (10 μM) and maintained at 34° C., pH 7.4, with continual aeration (95% O2/5% CO2). Two 4-minute samples (2.4 mL each) were collected to determine basal outflow of [^3H]DA. Slices were superfused for 36 min following addition of the analogs to the superfusion buffer after the collection of the second sample and nine 4-minute samples were collected. For initial probe assays, the concentration of analog was 100 nM. For concentration-response studies, the concentration of analog varied from 1 nM to 10 μM, and the effect of each concentration was determined using striatal slices obtained from an individual animal (repeated measures design). Subsequently, S(−)nicotine (10 μM) was added to the buffer and nine additional 4-minute samples were collected. At the end of the experiment, each slice was solubilized and the [^3H] content of the tissue determined.
Radioactivity in the superfusate and tissue samples was determined by liquid scintillation spectroscopy. Fractional release for tritium collected in each sample was divided by the total tritium present in the tissue at the time of sample collection and was expressed as a percentage of total tritium. Basal [^3H]outflow was calculated from the average of the tritium collected in the two […] samples just before addition of the analog. The sum of the increase in collected tritium resulting from either exposure to the test compound or exposure to S(−)nicotine in the absence and presence of the test compound equaled total [^3H]overflow. [^3H]Overflow was calculated by subtracting the [^3H]outflow during an equivalent period of prestimulation from the values in samples collected during and after drug exposure. Inasmuch as the radiolabelled compounds were not separated and identified, the tritium collected in superfusate is referred to as either [^3H]outflow or [^3H]overflow, rather than as [^3H]DA. [^3H]Overflow primarily represents [^3H]DA in the presence of nomifensine and pargyline in the superfusion buffer. […]
Analogs were also evaluated for their ability to inhibit NIC evoked [^3H]DA release. Antagonist activity was evaluated by comparing the NIC-evoked [^3H]overflow in the absence and presence of the analogs (see Table 1). […] Data are expressed as M±SEM. Control represents absence of compound. N=4/analog, *p<0.05
(§1) ^aData are % inhibition at 100 nM concentration of analog for 3-4 independent experiments. Specific binding in the [^3H]NIC binding assay is calculated as the difference between the total binding of 3 nM [^3H]NIC and nonspecific binding in the presence of 10 μM cytisine. Specific binding for the [^3H]MLA binding assay is calculated as the difference between the total binding of 3 nM [^3H]MLA to the receptors alone and its nonspecific binding in the presence of 10 μM nicotine. Analog-induced inhibition of nicotine-evoked [^3H]DA release is calculated as a percent of that in the absence of analog.
^bIC50 from full concentration response assay; data from 4-5 independent experiments, each performed in duplicate.

[1] = target: T1, α7-type neuronal nicotinic acetylcholine receptors (Rattus norvegicus, UniProt Q05941); assay: Inhibition of [^3H]methyllycaconitine (MLA) binding to rat brain membranes; conditions: % inhibition at 100 nM analog; 3 nM [^3H]MLA; nonspecific 10 μM nicotine; 3-4 independent experiments
T1 construct: The brain tissue was homogenized with a Tekmar Polytron; from tissue; host or cells: rat brain membranes (whole brain without cortex and cerebellum)
Procedure: (§2) Rat brain was dissected into the whole brain tissue without cortex and cerebellum and was frozen in liquid nitrogen and stored at −70° C. until use. The brain tissue was homogenized with a Tekmar Polytron (setting 40) in 20 volumes of ice-cold hypotonic buffer (2 mM HEPES, 14.4 mM NaCl, 0.15 mM KCl, 0.2 mM CaCl2 and […], pH=7.5). The homogenate was centrifuged at 25,000×g for 17 minutes at 4° C. The pellet was resuspended in 20 volumes of the same buffer, and incubated for 10 min at 37° C. The resuspension was cooled to 4° C. and then centrifuged at the above parameters. The pellet was resuspended by sonicaton and centrifuged using the same conditions. The final pellet was stored at −20° C. under 10 ml of the incubation buffer and was suspended just before incubation with radioligand.
(§3) The binding of [^3H]NIC and [^3H]MLA to probe α4β2 and α7-type neuronal nicotinic acetylcholine receptors, respectively, was determined using [^3H]NIC (67 Ci/mmol) and [^3H]MLA (60 Ci/mmol), purchased from Perkin Elmer Life Sciences, Boston, Mass., U.S.A. and American Radiolabel Chemicals, Inc., St. Louis, Mo., U.S.A. Binding was performed in duplicate, in a final volume of 250 μl of the incubation medium, containing 20 mM HEPES, 144 mM NaCl, 1.5 mM KCl, 2 mM CaCl2, and 1 mM MgSO4, pH=7.5. Reaction was initiated by the addition of 100 μL of membrane suspension to the samples containing a desired concentration of test compounds and 3 nM [^3H]NIC or 3 nM [^3H]MLA (final concentrations) and incubated for 60 min at room temperature. Total binding was measured in the absence of unlabelled ligand and nonspecific binding was determined in the presence of 10 μM cytisine, for [^3H]NIC binding, and 10 μM nicotine for [^3H]MLA. The binding reaction was terminated by dilution of samples with 3 mL of ice-cold incubation buffer followed by immediate filtration through Unifilter-96 GFB-filter plates presoaked in 0.5% polyethylenimine using a Filtermate Harvester (Perkin Elmer, Shelton, Conn., U.S.A.). Filters were rinsed five times with 350 μL of ice-cold buffer, and then filter plates were dried at 48° C. for 60 min, bottom sealed and each well filled with 40 μL of Packard Microscint-20 cocktail. After 60 min of gentle shaking, the filter plates were top sealed and radioactivity measured using a Packard TopCount NXT scintillation counter. CPMs were processed through a Packard Windows NT operating system. Protein was measured using the Bradford dye-binding procedure with bovine serum albumin as the standard.
(§4) The ability of a probe concentration of 100 nM of the tetrakis-quaternary ammonium salts to inhibit specific binding was evaluated.
as §1

[2] = target: T2, α4β2 neuronal nicotinic acetylcholine receptors (Rattus norvegicus, UniProt P09483+P12390); assay: Inhibition of [^3H]nicotine (NIC) binding to rat brain membranes; conditions: % inhibition at 100 nM analog; 3 nM [^3H]NIC; nonspecific 10 μM cytisine; 3-4 independent experiments
T2 construct: The brain tissue was homogenized with a Tekmar Polytron; from tissue; host or cells: rat brain membranes (whole brain without cortex and cerebellum)
Procedure: as §2, §3, §4, §1

T1 sequence (Q05941 23-502): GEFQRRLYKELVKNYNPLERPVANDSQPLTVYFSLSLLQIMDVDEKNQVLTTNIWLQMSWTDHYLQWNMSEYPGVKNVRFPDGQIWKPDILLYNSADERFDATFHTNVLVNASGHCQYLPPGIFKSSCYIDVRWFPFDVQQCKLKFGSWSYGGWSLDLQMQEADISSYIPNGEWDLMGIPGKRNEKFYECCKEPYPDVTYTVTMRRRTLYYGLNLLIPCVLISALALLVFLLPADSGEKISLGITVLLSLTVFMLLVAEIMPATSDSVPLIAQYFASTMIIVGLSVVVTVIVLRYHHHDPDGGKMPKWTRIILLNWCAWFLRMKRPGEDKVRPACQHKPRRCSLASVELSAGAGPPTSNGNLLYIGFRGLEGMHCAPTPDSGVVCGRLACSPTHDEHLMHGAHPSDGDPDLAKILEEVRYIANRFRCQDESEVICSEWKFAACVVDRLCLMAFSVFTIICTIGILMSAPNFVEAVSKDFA
T2 sequence (P09483 31-630): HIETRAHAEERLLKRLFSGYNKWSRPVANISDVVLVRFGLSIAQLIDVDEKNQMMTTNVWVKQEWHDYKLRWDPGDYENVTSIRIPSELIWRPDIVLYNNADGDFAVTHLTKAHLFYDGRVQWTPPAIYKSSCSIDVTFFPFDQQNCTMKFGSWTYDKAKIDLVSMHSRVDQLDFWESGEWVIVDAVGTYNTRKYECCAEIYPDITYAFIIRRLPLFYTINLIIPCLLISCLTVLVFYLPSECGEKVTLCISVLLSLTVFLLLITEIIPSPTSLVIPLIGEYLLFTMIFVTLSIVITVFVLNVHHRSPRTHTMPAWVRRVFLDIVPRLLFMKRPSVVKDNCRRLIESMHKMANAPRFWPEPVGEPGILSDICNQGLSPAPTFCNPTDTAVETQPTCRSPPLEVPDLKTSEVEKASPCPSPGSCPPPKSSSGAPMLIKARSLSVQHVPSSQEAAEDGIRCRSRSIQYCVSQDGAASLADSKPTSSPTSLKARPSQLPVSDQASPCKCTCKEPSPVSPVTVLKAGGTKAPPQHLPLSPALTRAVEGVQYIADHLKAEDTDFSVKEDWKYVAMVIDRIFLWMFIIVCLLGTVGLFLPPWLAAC
T2 sequence (P12390 25-500): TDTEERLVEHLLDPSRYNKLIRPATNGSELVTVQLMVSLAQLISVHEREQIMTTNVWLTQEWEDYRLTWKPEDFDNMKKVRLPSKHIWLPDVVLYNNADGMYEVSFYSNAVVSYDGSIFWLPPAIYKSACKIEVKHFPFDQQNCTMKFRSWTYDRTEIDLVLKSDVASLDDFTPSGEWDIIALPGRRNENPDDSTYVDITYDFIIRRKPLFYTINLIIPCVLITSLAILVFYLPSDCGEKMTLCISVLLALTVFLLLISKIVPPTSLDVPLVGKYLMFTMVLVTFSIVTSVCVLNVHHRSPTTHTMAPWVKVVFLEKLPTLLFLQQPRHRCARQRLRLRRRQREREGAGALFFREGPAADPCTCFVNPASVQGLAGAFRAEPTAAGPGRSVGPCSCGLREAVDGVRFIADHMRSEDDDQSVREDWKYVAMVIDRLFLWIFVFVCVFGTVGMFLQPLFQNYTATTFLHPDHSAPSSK

Row | SMILES | inhibition at 0.1 µM (rat striatal slices) | Inhibition of [^3H]MLA binding [1] | Inhibition of [^3H]Nicotine binding [2] | IC50 (rat striatal slices)
1 | Cc1cc[n+](CCCC#Cc2cc(C#CCCC[n+]3ccc(C)c(C)c3)c(C#CCCC[n+]3ccc(C)c(C)c3)cc2C#CCCC[n+]2ccc(C)c(C)c2)cc1C.[Br-].[Br-].[Br-].[Br-] | 17 ± 6% | 0.6 ± 0.6% | 9.8 ± 1.2% | –
2 | [Br-].[Br-].[Br-].[Br-].c1ccc(Cc2ccc[n+](CCCCCc3cc(CCCCC[n+]4cccc(Cc5ccccc5)c4)c(CCCCC[n+]4cccc(Cc5ccccc5)c4)cc3CCCCC[n+]3cccc(Cc4ccccc4)c3)c2)cc1 | 54 ± 10% | 16 ± 8% | 13 ± 3.3% | 28 nM
3 | CN1CCCC1c1ccc[n+](CCCCCc2cc(CCCCC[n+]3cccc(C4CCCN4C)c3)c(CCCCC[n+]3cccc(C4CCCN4C)c3)cc2CCCCC[n+]2cccc(C3CCCN3C)c2)c1.[Br-].[Br-].[Br-].[Br-] (stereo not shown) | 43 ± 21% | 26 ± 14% | 7.4 ± 4.7% | –
4 | [Br-].[Br-].[Br-].[Br-].c1c(CCCCC[n+]2ccc3c(c2)CCCC3)c(CCCCC[n+]2ccc3c(c2)CCCC3)cc(CCCCC[n+]2ccc3c(c2)CCCC3)c1CCCCC[n+]1ccc2c(c1)CCCC2 | 27 ± 2% | 27 ± 15% | 0.9 ± 0.9% | 56 nM
5 | [Br-].[Br-].[Br-].[Br-].c1ccc2c[n+](CCCCCc3cc(CCCCC[n+]4ccc5ccccc5c4)c(CCCCC[n+]4ccc5ccccc5c4)cc3CCCCC[n+]3ccc4ccccc4c3)ccc2c1 | 63 ± 12% | 24 ± 13% | 6.5 ± 6.5% | 56 nM
6 | Cc1cc[n+](CCCC#Cc2cc(C#CCCC[n+]3ccc(C)cc3)c(C#CCCC[n+]3ccc(C)cc3)cc2C#CCCC[n+]2ccc(C)cc2)cc1.[Br-].[Br-].[Br-].[Br-] | 35 ± 14% | 3.0 ± 3.0% | 24 ± 5.5% | –
7 | [Br-].[Br-].[Br-].[Br-].c1ccc(-c2ccc[n+](CCCCCc3cc(CCCCC[n+]4cccc(-c5ccccc5)c4)c(CCCCC[n+]4cccc(-c5ccccc5)c4)cc3CCCCC[n+]3cccc(-c4ccccc4)c3)c2)cc1 | 19 ± 15% | 33 ± 17% | 6.6 ± 4.5% | –
8 | Cc1cc[n+](CCCCCc2cc(CCCCC[n+]3ccc(C)c(C)c3)c(CCCCC[n+]3ccc(C)c(C)c3)cc2CCCCC[n+]2ccc(C)c(C)c2)cc1C.[Br-].[Br-].[Br-].[Br-] | 36 ± 11% | 18 ± 10% | 0.5 ± 0.5% | –
9 | OCCCc1ccc[n+](CCCCCc2cc(CCCCC[n+]3cccc(CCCO)c3)c(CCCCC[n+]3cccc(CCCO)c3)cc2CCCCC[n+]2cccc(CCCO)c2)c1.[Br-].[Br-].[Br-].[Br-] | 64 ± 15% | 20 ± 13% | 9.6 ± 5.2% | 3.38 nM
10 | C(#Cc1cc(C#CCCC[n+]2cccc(-c3ccccc3)c2)c(C#CCCC[n+]2cccc(-c3ccccc3)c2)cc1C#CCCC[n+]1cccc(-c2ccccc2)c1)CCC[n+]1cccc(-c2ccccc2)c1.[Br-].[Br-].[Br-].[Br-] | 37 ± 15% | 53 ± 0.8% | 0.3 ± 0.3% | –
11 | OCCCc1ccc[n+](CCCC#Cc2cc(C#CCCC[n+]3cccc(CCCO)c3)c(C#CCCC[n+]3cccc(CCCO)c3)cc2C#CCCC[n+]2cccc(CCCO)c2)c1.[Br-].[Br-].[Br-].[Br-] | 41 ± 15% | 5.7 ± 5.7% | 0 ± 0% | –
12 | C(#Cc1cc(C#CCCC[n+]2ccc3c(c2)CCCC3)c(C#CCCC[n+]2ccc3c(c2)CCCC3)cc1C#CCCC[n+]1ccc2c(c1)CCCC2)CCC[n+]1ccc2c(c1)CCCC2.[Br-].[Br-].[Br-].[Br-] | 24 ± 14% | 17 ± 8.9% | 9.7 ± 9.7% | –
13 | Cc1cc(C)c[n+](CCCCCc2cc(CCCCC[n+]3cc(C)cc(C)c3)c(CCCCC[n+]3cc(C)cc(C)c3)cc2CCCCC[n+]2cc(C)cc(C)c2)c1.[Br-].[Br-].[Br-].[Br-] | 45 ± 14% | 15 ± 8% | 3.7 ± 3.7% | –
14 | CN1CCCC1c1ccc[n+](CCCC#Cc2cc(C#CCCC[n+]3cccc(C4CCCN4C)c3)c(C#CCCC[n+]3cccc(C4CCCN4C)c3)cc2C#CCCC[n+]2cccc(C3CCCN3C)c2)c1.[Br-].[Br-].[Br-].[Br-] (stereo not shown) | 31 ± 13% | 15 ± 2.0% | 38 ± 7.4% | –
15 | Cc1ccc[n+](CCCC#Cc2cc(C#CCCC[n+]3cccc(C)c3)c(C#CCCC[n+]3cccc(C)c3)cc2C#CCCC[n+]2cccc(C)c2)c1.[Br-].[Br-].[Br-].[Br-] | 16 ± 13% | 18 ± 7.8% | 11 ± 11% | –
16 | Cc1cc(C)c[n+](CCCC#Cc2cc(C#CCCC[n+]3cc(C)cc(C)c3)c(C#CCCC[n+]3cc(C)cc(C)c3)cc2C#CCCC[n+]2cc(C)cc(C)c2)c1.[Br-].[Br-].[Br-].[Br-] | 12 ± 5% | 3.9 ± 3.9% | 0 ± 05% | –
17 | Cc1ccc[n+](CCCCCc2cc(CCCCC[n+]3cccc(C)c3)c(CCCCC[n+]3cccc(C)c3)cc2CCCCC[n+]2cccc(C)c2)c1.[Br-].[Br-].[Br-].[Br-] | 8 ± 4% | 12 ± 6.9% | 12 ± 4.4% | –
